Test results as given in US11096865B2, “Preservative removal from eye drops” (TearClear Corp., priority 2019, dated 2021).
Blank lines part the entries; values can stand above or below the compound they belong to.

Assay: 30 day drop test, API retention after dropper tip packed with OxPO
Format: physicochemical
Details: for API concentration in drops: tip packed with OxHDPE A-C 395, 125-250 μm, acid washed; for API concentration: Initial formulation
Procedure: To 60.0 g of ultrapure water was added 0.090 g hydroxyethyl cellulose (Natrosol 250H) and the solution was stirred overnight to dissolve. Subsequently, 0.176 g sodium citrate dihydrate and 0.960 g mannitol were added and the mixture was stirred until completely dissolved. 1.37 g Dorzolamide Hydrochloride, 0.420 g Timolol Maleate and 0.045 g of a 10% aqueous solution of BAK were added and incorporated. The pH was adjusted to 5.65 with 0.01N NaOH solution. The final nominal concentrations are reported below.
An empty dropper tip equipped with a 25 μm filter at the tip exit was packed with approximately […] of OxPO and the backing filter was attached to retain the OxPO packing in place. The weight of the OxPO packing was recorded. The packed tip was then inserted into the neck of an 8 ml dropper bottle containing 5 ml of the API/BAK test solution.
5 ml of the formulation described above containing nominally 5.0 mg/ml Timolol, 20.0 mg/ml Dorzolamide and 75 μg/ml BAK was loaded into six eyedropper bottles packed with OxHDPE (A-C 395, 125-250 μm, acid washed) as described above. Drops were obtained from each bottle twice a day (AM and PM 8 hours apart) and analyzed by HPLC for API and BAK.

- API concentration in drops (Day 1A): 20.0 mg/mL
- API concentration in drops (Day 1P): 20.1 mg/mL
- API concentration in drops (Day 2A): 19.2 mg/mL
- API concentration in drops (Day 2P): 19.4 mg/mL
- API concentration in drops (Day 3A): 19.5 mg/mL
- API concentration in drops (Day 3P): 19.6 mg/mL
- API concentration in drops (Day 4A): 19.3 mg/mL
- API concentration in drops (Day 4P): 19.7 mg/mL
- API concentration in drops (Day 5A): 19.7 mg/mL
- API concentration in drops (Day 5P): 19.8 mg/mL
- API concentration in drops (Day 6A): 19.8 mg/mL
- API concentration in drops (Day 6P): 20.2 mg/mL
- API concentration in drops (Day 7A): 20.3 mg/mL
- API concentration in drops (Day 7P): 20.3 mg/mL
- API concentration in drops (Day 8A): 20.1 mg/mL
- API concentration in drops (Day 8P): 20.2 mg/mL
- API concentration in drops (Day 9A): 19.8 mg/mL
- API concentration in drops (Day 9P): 19.5 mg/mL
- API concentration in drops (Day 10A): 19.8 mg/mL
- API concentration in drops (Day 10P): 20.1 mg/mL
- API concentration in drops (Day 11A): 19.9 mg/mL
- API concentration in drops (Day 11P): 19.9 mg/mL
- API concentration in drops (Day 12A): 19.8 mg/mL
- API concentration in drops (Day 12P): 19.9 mg/mL
- API concentration in drops (Day 13A): 19.9 mg/mL
- API concentration in drops (Day 13P): 19.9 mg/mL
- API concentration in drops (Day 14A): 19.7 mg/mL
- API concentration in drops (Day 14P): 20.0 mg/mL
- API concentration in drops (Day 15A): 19.8 mg/mL
- API concentration in drops (Day 15P): 19.9 mg/mL
- API concentration in drops (Day 16A): 19.5 mg/mL
- API concentration in drops (Day 16P): 19.8 mg/mL
- API concentration in drops (Day 17A): 19.4 mg/mL
- API concentration in drops (Day 17P): 19.4 mg/mL
- API concentration in drops (Day 18A): 19.7 mg/mL
- API concentration in drops (Day 18P): 19.6 mg/mL
- API concentration in drops (Day 19A): 19.2 mg/mL
- API concentration in drops (Day 19P): 19.5 mg/mL
- API concentration in drops (Day 20A): 19.6 mg/mL
- API concentration in drops (Day 20P): 19.7 mg/mL
- API concentration in drops (Day 21A): 19.6 mg/mL
- API concentration in drops (Day 21P): 19.7 mg/mL
- API concentration in drops (Day 22A): 20.0 mg/mL
- API concentration in drops (Day 22P): 19.5 mg/mL
- API concentration in drops (Day 23A): 19.8 mg/mL
- API concentration in drops (Day 23P): 19.8 mg/mL
- API concentration in drops (Day 24A): 19.8 mg/mL
- API concentration in drops (Day 24P): 19.8 mg/mL
- API concentration in drops (Day 25A): 19.6 mg/mL
- API concentration in drops (Day 25P): 19.7 mg/mL
- API concentration in drops (Day 26A): 20.2 mg/mL
- API concentration in drops (Day 26P): 20.1 mg/mL
- API concentration in drops (Day 27A): 20.1 mg/mL
- API concentration in drops (Day 27P): 20.1 mg/mL
- API concentration in drops (Day 28A): 20.1 mg/mL
- API concentration in drops (Day 28P): 19.9 mg/mL
- API concentration in drops (Day 29A): 19.6 mg/mL
- API concentration in drops (Day 29P): 19.6 mg/mL
- API concentration in drops (Day 30A): 20.1 mg/mL
- API concentration in drops (Day 30P): 20.1 mg/mL
- API concentration: 21.0 (mg/ml)
SMILES: CCN[C@H]1C[C@H](C)S(=O)(=O)c2sc(S(N)(=O)=O)cc21 [Dorzolamide]

- API concentration in drops (Day 1A): 4.93 mg/mL
- API concentration in drops (Day 1P): 4.91 mg/mL
- API concentration in drops (Day 2A): 4.51 mg/mL
- API concentration in drops (Day 2P): 4.64 mg/mL
- API concentration in drops (Day 3A): 4.60 mg/mL
- API concentration in drops (Day 3P): 4.65 mg/mL
- API concentration in drops (Day 4A): 4.59 mg/mL
- API concentration in drops (Day 4P): 4.72 mg/mL
- API concentration in drops (Day 5A): 4.68 mg/mL
- API concentration in drops (Day 5P): 4.78 mg/mL
- API concentration in drops (Day 6A): 4.76 mg/mL
- API concentration in drops (Day 6P): 4.90 mg/mL
- API concentration in drops (Day 7A): 4.86 mg/mL
- API concentration in drops (Day 7P): 4.91 mg/mL
- API concentration in drops (Day 8A): 4.85 mg/mL
- API concentration in drops (Day 8P): 4.89 mg/mL
- API concentration in drops (Day 9A): 4.84 mg/mL
- API concentration in drops (Day 9P): 4.87 mg/mL
- API concentration in drops (Day 10A): 4.89 mg/mL
- API concentration in drops (Day 10P): 4.90 mg/mL
- API concentration in drops (Day 11A): 4.89 mg/mL
- API concentration in drops (Day 11P): 4.96 mg/mL
- API concentration in drops (Day 12A): 4.86 mg/mL
- API concentration in drops (Day 12P): 4.95 mg/mL
- API concentration in drops (Day 13A): 4.89 mg/mL
- API concentration in drops (Day 13P): 4.93 mg/mL
- API concentration in drops (Day 14A): 4.86 mg/mL
- API concentration in drops (Day 14P): 4.97 mg/mL
- API concentration in drops (Day 15A): 4.87 mg/mL
- API concentration in drops (Day 15P): 4.93 mg/mL
- API concentration in drops (Day 16A): 4.90 mg/mL
- API concentration in drops (Day 16P): 5.01 mg/mL
- API concentration in drops (Day 17A): 4.90 mg/mL
- API concentration in drops (Day 17P): 4.97 mg/mL
- API concentration in drops (Day 18A): 4.98 mg/mL
- API concentration in drops (Day 18P): 4.97 mg/mL
- API concentration in drops (Day 19A): 4.87 mg/mL
- API concentration in drops (Day 19P): 4.98 mg/mL
- API concentration in drops (Day 20A): 4.99 mg/mL
- API concentration in drops (Day 20P): 5.02 mg/mL
- API concentration in drops (Day 21A): 4.92 mg/mL
- API concentration in drops (Day 21P): 4.95 mg/mL
- API concentration in drops (Day 22A): 4.98 mg/mL
- API concentration in drops (Day 22P): 4.93 mg/mL
- API concentration in drops (Day 23A): 4.96 mg/mL
- API concentration in drops (Day 23P): 4.97 mg/mL
- API concentration in drops (Day 24A): 4.94 mg/mL
- API concentration in drops (Day 24P): 4.96 mg/mL
- API concentration in drops (Day 25A): 4.90 mg/mL
- API concentration in drops (Day 25P): 4.93 mg/mL
- API concentration in drops (Day 26A): 4.97 mg/mL
- API concentration in drops (Day 26P): 4.96 mg/mL
- API concentration in drops (Day 27A): 4.96 mg/mL
- API concentration in drops (Day 27P): 4.97 mg/mL
- API concentration in drops (Day 28A): 4.93 mg/mL
- API concentration in drops (Day 28P): 4.95 mg/mL
- API concentration in drops (Day 29A): 4.90 mg/mL
- API concentration in drops (Day 29P): 4.93 mg/mL
- API concentration in drops (Day 30A): 4.98 mg/mL
- API concentration in drops (Day 30P): 4.97 mg/mL
- API concentration: 5.04 (mg/ml)
SMILES: CC(C)(C)NC[C@H](O)COc1nsnc1N1CCOCC1 [Timolol]
